Assays:
Alternaria alternata = assay: Field trial 2014, control of Alternaria alternata on mandarins (Alzira, Valencia, Spain); type: in vivo; conditions: Syllit 544 g/l suspension concentrate; spring, autumn and combined treatments; OECD criteria; FIG. 9
Method: (§1) A field trial was conducted for the control of Alternaria alternata on mandarins in Alzira, Valencia, Spain. The product used was Syllit 544 g/l suspension concentrate. Mandarins were harvested and classified using the OECD criteria (international quality standard for citrus established by the Organisation for Economic Co-operation and Development in 2010).

mandarins = assay: Phytotoxicity observation in field trial 2014; type: in vivo; conditions: field trial 2014 on mandarins, Syllit 544 g/l suspension concentrate
Method: as §1

`CC(=O)O.CCCCCCCCCCCCNC(=N)N` [Dodine, 1-dodecylguanidiniumethanoate] was tested, and the “percentage of fruits in the category Extra compared to control group” value (Alternaria alternata) was “significantly higher percentage of fruit” and the symptoms of phytotoxicity (mandarins) was “No symptoms of phytotoxicity were observed”.
